Source: patent publication US9060966B2, “Use of 2,5-dihydroxybenzene derivatives for the treatment of arthritis and pain” (priority 2006, dated 2015)
Entries after “also recorded” stand apart in the source; their conditions may differ.

Key:
[1] = test system: infantile hemangioma; experiment: Topical treatment of infantile hemangioma in a child; type: in vivo, human; conditions: cream 2.5%, topical twice a day, 1, 2 and 3 months, one child
Source text: Photographs of a child showing the effects of the topical treatment with a cream comprising 2,5-dihydroxybenzenesulfonic (DHBS) (2.5%) in a baby suffering infantile hemangioma.
The cream comprising 2,5-dihydroxybenzene sulfonic (2.5%) was topically applied twice a day for 3 months on the face of a child suffering from infantile hemangioma.

[2] = test system: Nakagawa angioblastoma; experiment: Topical treatment of Nakagawa angioblastoma (hemangioblastoma) in a child; type: in vivo, human; conditions: cream 2.5%, topical twice a day, 1 month, one child
Source text: Photographs showing the effects of a topical treatment with a cream comprising 2,5-dihydroxybenzenesulfonic (DHBS) in a child suffering from Nakagawa angioblastoma.
The cream comprising 2,5-dihydroxybenzene sulfonic (2.5%) was topically applied twice a day during 1 month on the face of the child suffering from Nakagawa angioblastoma.

[3] = test system: skeletal muscle lesions; experiment: Oral treatment of skeletal muscle and tendon lesions in patients (MRI, function); type: in vivo, human
Experimental: A and B are, respectively, front and cross sectional magnetic resonance images (MRI) showing the breaking of the left quadriceps in a patient, immediately before treatment. The presence of a large hematoma, indicated by arrows, may be observed. C and D are, respectively, front and cross sectional MRI showing the quadriceps of the same patient after treatment with 2,5-dihydroxybenzene sulfonic acid (DHBS) (500 mg/day p.o. for two weeks). […] 1 indicates the femur and 2 indicates the femoral vessels.
A is a Magnetic Resonance Image (MRI) of a patient showing the breaking of the right arm brachial biceps one day after the lesion and immediately before the treatment.
Images show the clinical manifestation of the patient referred to in FIG. 12. Before the treatment (1 day after the lesion) a large hematoma (A) and limited flexion (B) and extension (C) of the elbow are observed.
It is a Magnetic Resonance Image (MRI) of a patient showing the breaking of left leg semitendinosus muscle 9 days after the lesion and immediately before starting the treatment.
A is a Magnetic Resonance Image (MRI) of a patient showing the Achilles tendon rupture just before being treated.
The capacity of a 2,5-dihydroxybenzene derivative, the 2,5-dihydroxybenzene sulfonic acid (DHBS) to effectively treat skeletal muscle lesions is shown herein. The efficacy is evident, not only in the images of conventional diagnosis that show the recovery of the muscular damage, but also there is a clear functional recovery of the affected limb.
The first patient's left quadriceps was broken by practicing sports. […] At that moment, the patient starts a daily oral treatment with 500 mg of 2,5-dihydroxybenzene sulfonic acid (DHBS) for two weeks. […] An observation that may be applied to the other cases that support this example.
Other patient has an hematoma and muscular breaking of the brachial biceps, as shown in the magnetic resonance image (MRI) of FIG. 12A. The hematoma can be appreciated externally (FIG. 13A) and the lesion, produced by professional practice (dancing) the day before the consultation, limits the elbow flexion (FIG. 13B) and extension (FIG. 13C).

[4] = test system: human retinal endothelial cells (HREC); experiment: Proliferation of human retinal endothelial cells (HREC, crystal violet); type: cell-based; conditions: calcium 2,5-dihydroxybenzenesulfonate, 100 μM, 72 h, for comparison
Experimental: (§1) 2A-5HBS was administered or not administered (control) after seeding the HREC in 24-well plates (7.5×10^3 per well) until they were fixed after 72 hours. The data are expressed as the mean±SEM of the percentage of the absorbance at 595 nm obtained in the control cultures, which is proportional to the number of cells stained with crystal violet. The data were obtained from 6 cultures for each treatment in two separate experiments. The white bar represents the value of the control cells, whereas the gray bars show the value in the presence of 2A-5HBS (500 and 1000 μM). * indicates p<0.05, *** p<0.001 with respect to the control by means of a single-factor analysis of variance (ANOVA) followed by a Student-Newman-Keuls post-analysis.
as §1, with “5A-2HBS” for “2A-5HBS”, “striped” for “gray”, “***” for “*”, “indicates” for “indicates p<0.05, ***”
2,5-DHCME was administered or not administered (control) after seeding the HREC in 24-well plates (7.5×10^3 per well) until they were fixed after 72 hours. The data are expressed as the mean±SEM of the percentage of the absorbance at 595 nm obtained in the control cultures, which is proportional to the number of cells stained with crystal violet. The data were obtained from 6 cultures for each treatment in two separate experiments.
Primary cultures of human retinal endothelial cells (HREC) were used. Cells were obtained from Cell Systems (Virginia, USA) and subcultured with CSC complete medium (Cell Systems). Cells at 2 to 5 passages were seeded in 24-well plates at 7,500 cells/well density and, once attached, the cells were treated o not treated (controls) with 2A-5HBS (500 and 1000 μM) or 5A-2HBS (500 and 1000 μM) and they were allowed to proliferate for 72 hours, with daily medium changes. After that, the proliferation of HREC was evaluated by staining the fixed cells with crystal violet. The number of cells is proportional to the amount of retained dye, which was spectrophotometrically determined by measuring absorbance at 595 nm after removing the dye from the cells. Data are expressed as the percentage of absorbance at 595 nm obtained in control conditions. Data were obtained from two different experiments performed in triplicate.
Primary cultures of human retinal endothelial cells (HREC) were used. Cells were obtained from Cell Systems (Virginia, USA) and subcultured with CSC complete medium (Cell Systems). […] After that, the proliferation of HREC was evaluated by staining the fixed cells with crystal violet. The number of cells is proportional to the amount of retained dye, which was spectrophotometrically determined by measuring absorbance at 595 nm after removing the dye from the cells. Data are expressed as the percentage of absorbance at 595 nm obtained in control conditions. […]

[5] = brachial biceps breaking, 1500 mg/day p.o., 20 days, one patient
[6] = left quadriceps breaking, 500 mg/day p.o., two weeks, one patient

O=S(=O)(O)c1cc(O)ccc1O [DHBS, 2,5-dihydroxybenzenesulfonic acid]
hemangioma lesion appearance [1]: substantial recovery of the lesion
intensity of the coloration caused by the lesion [2]: decrease in the intensity of the coloration
intensity of the coloration caused by the lesion ([2]; listed as 2,5-dihydroxybenzene sulfonic): reduction in the intensity of the reddish coloration
semitendinosus muscle lesion on MRI ([3]; 1500 mg/day p.o., 11 days, started 9 days after lesion, one patient): reduced the muscular lesion; also recorded: remarkable reduction in the size of the lesion
Achilles tendon lesion on MRI ([3]; 1500 mg/day p.o., two months, one patient): marked reduction of said lesion; also recorded: remarkable reduction in the size of the lesion
elbow flexion and extension [3, 5]: recovers the functionality of the elbow flexion and extension; also recorded: have been recovered
size of the lesion and of the hematoma, brachial biceps [3, 5]: markedly reduces the size of the lesion and of the hematoma; also recorded: remarkable reduction in the size of the lesion; also recorded: the hematoma has disappeared
quadriceps hematoma on MRI [3, 6]: can no longer be observed; also recorded: the hematoma has disappeared
quadriceps lesion on MRI [3, 6]: recovery of the lesion in the quadriceps
period to functional recovery and resolution vs conventional treatments (antiinflammatories) ([3]; quadriceps breaking, 500 mg/day p.o., two weeks): shorter period
flexion and extension capacity of the leg ([3]; quadriceps breaking, 500 mg/day p.o., two weeks, one patient): able to extend the left leg almost completely; also recorded: almost complete flexion (A) and extension (B) capacity
HREC proliferation [4]: failed to significantly affect
